From US10584132B2, “SHMT inhibitors” (The Trustees of Princeton University, priority 2016, dated 2020)

Legend:
[1] = LogP Value; format: physicochemical
[2] = system: HCT-116 WT cells; assay: Cell growth assay (resazurin), HCT-116 wild type, with or without formate; format: cell-based, human; details: for rescue of effects on cell growth by addition of formate: HCT-116, formate
Protocol: (§1) The described cell lines for Examples 8 and 9 are cultured in 96-well plates in Dulbecco's modified eagle media (DMEM) without pyruvate (CELLGRO) with 10% dialysed fetal bovine serum (Invitrogen) in 5% CO2 at 37° C. Approximately 2,500 cells are plated in each well in 90 uL of media. After 24 hours cells are treated with various concentrations of inhibitor (time=0 hours), with or without formate. Growth was assessed at multiple time points (time=0, 24, 48, 72 hours) through measurement of fluorescence at 595 nm (excitation at 535 nm) on a BioTek micro titer plate reader after incubation with resazurin (0.01 mg/mL for 1.5 hours). IC50 curves are generated from percent inhibition of growth at 72 hours.

[3] = system: HCT-116 ΔSHMT2 cells; assay: Cell growth assay, HCT-116 SHMT2 deletion (knock-out) cells; format: cell-based, human
Protocol: as §1
Clonal deletion cell lines of SHMT1, SHMT2, and SHMT1/2 were generated from the human colorectal carcinoma cell line HCT-116. Paired Cas9 nickase (Cas9n) containing constructs that encoded single-guide RNA sequences targeting SHMT1 or 2 were transiently transfected into cells, and mutant colonies from single clones were picked as described in Ducker et al., (2016) Reversal of Cytosolic One-Carbon Flux Compensates for Loss of the Mitochondrial Folate Pathway, Cell Metab 23, 1140-1153. SHMT1 deletion had no effect on cell growth either in cell culture or as subcutaneous xenografts in nude mice. In contrast, SHMT2 deletion cells grew slower in culture and as xenografts (FIG. 8A).

[4] = Liver microsome assay; format: in vitro ADME; details: pooled male mouse liver microsomes, 2 μM
Protocol: The following master solution was prepared before compound addition:
Two separate experiments were performed as follows: a) With Cofactors (NADPH and UDPGA): 40 μL of 10 mM NADPH and 40 μL of 20 mM UDPGA were added to the incubations. The final concentrations of microsomes, NADPH and UDPGA were 0.5 mg/mL, 1 mM and 2 mM, respectively. b) Without Cofactors (NADPH and UDPGA): 10 μL of 20 mg/mL liver microsomes and 80 μL of ultra-pure water were added to the incubations. The final concentration of microsomes was 0.5 mg/mL. The mixture was pre-warmed at 37° C. for 5 minutes.
The reaction was started with the addition of 4 μL of 200 μM control compound or test compound solution. Verapamil was used as positive control in this study. The final concentration of test compound or control compound was 2 μM. The incubation solution was incubated in water bath at 37° C. Aliquots of 50 μL were taken from the reaction solution at 0.5, 5, 15, 30, 45 and 60 minutes. The reaction was stopped by the addition of 5 volumes of cold acetonitrile with IS (100 nM alprazolam, 200 nM caffeine and 100 nM tolbutamide). Samples were centrifuged at 3,220 g for 40 minutes. Aliquot of 100 μL of the supernatant was mixed with 100 μL of ultra-pure H2O and then used for LC-MS/MS analysis. The in vitro half-life (in vitro t1/2) was determined from the slope value of the LC-MS signal of the test compound.

[5] = target: human SHMT2 (Homo sapiens (Human), UniProt P34897); assay: SHMT2 in vitro enzymatic assay (coupled with excess MTHFD2, NADH absorption at 340 nm); format: biochemical
Chain of human SHMT2 (P34897 30-504): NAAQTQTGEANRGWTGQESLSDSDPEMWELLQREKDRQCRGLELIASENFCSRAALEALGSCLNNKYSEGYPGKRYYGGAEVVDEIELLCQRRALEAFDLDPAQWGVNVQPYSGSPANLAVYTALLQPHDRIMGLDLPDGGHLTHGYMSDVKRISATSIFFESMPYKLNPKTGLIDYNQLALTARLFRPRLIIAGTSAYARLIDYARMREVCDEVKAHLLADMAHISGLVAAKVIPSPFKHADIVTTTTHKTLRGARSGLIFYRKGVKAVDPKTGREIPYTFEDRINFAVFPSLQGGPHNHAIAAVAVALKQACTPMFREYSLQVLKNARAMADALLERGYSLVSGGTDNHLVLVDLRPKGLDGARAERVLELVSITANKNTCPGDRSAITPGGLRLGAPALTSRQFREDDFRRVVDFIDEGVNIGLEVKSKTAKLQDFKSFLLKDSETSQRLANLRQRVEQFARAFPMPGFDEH
Protocol: (§2) For the SHMT1 and SHMT2 in vitro enzymatic assays, the rate of 5,10-methylene tetrahydrofolate formation catalyzed by SHMT1/2 was indirectly evaluated by coupling with excess MTHFD2, which converts NAD+ to NADH allowing for reaction monitoring by absorption at 340 nm. […] Inhibition of initial reaction velocity was determined by adding various inhibitors at different concentrations and monitored as described. IC50 may be calculated based on this assay.

[6] = target: human SHMT1 (Homo sapiens (Human), UniProt P34896); assay: SHMT1 in vitro enzymatic assay (coupled with excess MTHFD2, NADH absorption at 340 nm); format: biochemical
Chain of human SHMT1 (P34896 whole entry): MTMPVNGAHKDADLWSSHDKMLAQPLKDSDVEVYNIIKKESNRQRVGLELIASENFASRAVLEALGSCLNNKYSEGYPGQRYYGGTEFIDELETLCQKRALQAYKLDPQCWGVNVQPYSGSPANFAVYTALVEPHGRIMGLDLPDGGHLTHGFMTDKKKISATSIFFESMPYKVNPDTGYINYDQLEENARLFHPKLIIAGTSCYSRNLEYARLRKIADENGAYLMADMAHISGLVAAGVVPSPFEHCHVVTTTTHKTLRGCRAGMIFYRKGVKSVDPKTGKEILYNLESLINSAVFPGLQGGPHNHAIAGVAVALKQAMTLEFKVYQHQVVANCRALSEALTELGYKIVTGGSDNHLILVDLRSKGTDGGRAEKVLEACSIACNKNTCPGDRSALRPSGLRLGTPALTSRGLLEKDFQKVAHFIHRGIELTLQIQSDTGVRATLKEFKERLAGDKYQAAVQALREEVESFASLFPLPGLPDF
Protocol: as §2

[7] = system: Su-DHL-4 cells; assay: Apoptosis by flow cytometry (Annexin V surface staining), Su-DHL-4; format: cell-based, human; details: for apoptotic fraction of cells: 24 hours
Text: Apoptosis was enhanced by co-treatment with formate. In contrast, as expected, formate rescued Jurkat E6-1 leukemia cells from apoptosis (FIG. 11C). Without wishing to be bound by theory, it is hypothesized that the failure of formate to rescue growth in the DLBCL cell lines is due to a requirement for both glycine and 1C units made by SHMT in these cells. When glycine is limiting, formate can enhance the cytotoxicity of SHMT inhibition. […] Mechanistically, by supplying 5,10-methylene-THF, formate may drives residual SHMT enzymatic function in the […] direction.
In contrast, cell growth is further decreased in Su-DHL4 cells by addition of formate. This can be further exacerbated by removal of glycine from the media. […] Using flow cytometry, apoptosis of Su-DHL4 cells were studied with AnnexinV surface staining (FIGS. 12D and 12E).

[8] = system: Su-DHL-4 cells; assay: Growth of Su-DHL-4 cells in RPMI; format: cell-based, human; details: for cell growth (or death) over 48 h: Su-DHL-4, 5 μM
Protocol: Cells were stained with propidium iodide and FITC conjugated Annexin V. 10,000 events shown. […] All conditions included at least normal media glycine (10 mg/L) (mean±SD, n=3).
Co-culture with 1 mM formate restores nucleotide levels selectively in Jurkat cells (mean±SD, n=3-6). […] Note the low uptake in Su-DHL-4 cells (gly=glycine, GSH=glutathione) (mean±SD, n=3). […] The SHMT reaction makes two products, 5,10-methyleneTHF and glycine. When SHMT is inhibited, exogenous formate can be incorporated into the 1C cycle whereas in B-cells poor glycine uptake limits the ability of extracellular glycine to rescue. Strategies that further stress glycine availability augment the efficacy of SHMT inhibition.

[9] = system: 8988T cells; assay: Growth of pancreatic cancer cell line 8988T; format: cell-based, human

Q: For `Cc1n[nH]c2c1C(c1cc(C#CCCC(=O)O)cc(C(F)(F)F)c1)(C(C)C)C(C#N)=C(N)O2` (centres unmarked) [Compound 4], which logP [1] is on record?
A: The logP was 3.56.

Q: With `Cc1n[nH]c2c1C(c1cc(C#CCCCN)cc(C(F)(F)F)c1)(C(C)C)C(C#N)=C(N)O2` (centres unmarked) [Compound 8] as the molecule, how does the logP [1] read?
A: Its logP is 2.72.

Q: For `Cc1n[nH]c2c1C(c1cc(C#CCCC(N)=O)cc(C(F)(F)F)c1)(C(C)C)C(C#N)=C(N)O2` (centres unmarked) [Compound 11], which logP [1] is on record?
A: Its logP is 3.22.

Q: With `Cc1n[nH]c2c1C(c1cc(C#CCCCO)cc(C(F)(F)F)c1)(C(C)C)C(C#N)=C(N)O2` (centres unmarked) [Compound 61, 6-amino-4-(3-(5-hydroxypent-1-yn-1-yl)-5-(trifluoromethyl)phenyl)-4-isopropyl-3-methyl-1,4-dihydropyrano[2,3-c]pyrazole-5-carbonitrile] as the molecule, how does the “inhibition of growth (proliferation) of HCT116 cells” value ([2]; native HCT116) read?
A: The value was “inhibited growth”.

Q: And the “inhibition of growth of SHMT2 knock-out HCT116 cells versus native” value [3]?
A: The value was “increased potency”.

Q: For `Cc1n[nH]c2c1C(c1cc(C#N)cc(C#CCCC(=O)O)c1)(C(C)C)C(C#N)=C(N)O2` (centres unmarked) [Compound 68], which logP [1] is on record?
A: Its logP is 2.37.

Q: For `Cc1n[nH]c2c1C(c1cc(C#CCCC(=O)N[C@@H](CCC(=O)O)C(=O)O)cc(C(F)(F)F)c1)(C(C)C)C(C#N)=C(N)O2` (some centres unmarked) [Compound 69], which logP [1] is on record?
A: Its logP is 2.49.

Q: For `Cc1n[nH]c2c1C(c1cc(C#N)cc(C#CCCCO)c1)(C(C)C)C(C#N)=C(N)O2` (centres unmarked) [Compound 71], which logP [1] is on record?
A: The logP was 2.89.

Q: For `Cc1n[nH]c2c1C(c1cc(C#CCCCO)cc(CO)c1)(C(C)C)C(C#N)=C(N)O2` (centres unmarked) [Compound 74], which “CLint (replicate 2)” value [4] is on record?
A: Its value is 67.96 μL/min/mg protein.

Q: Which IC50 [5] does the source give for `Cc1n[nH]c2c1C(c1cccc(Cl)c1)(C1CCC1)C(C#N)=C(N)O2` (centres unmarked) [HK-3] here?
A: The IC50 was 1.19 µM.

Q: For `COc1cccc(C2(C(C)C)C(C#N)=C(N)Oc3[nH]nc(C)c32)c1` (centres unmarked) [HK-6], which IC50 [5] is on record?
A: The IC50 was 4.58 µM.

Q: Which IC50 [5] does the source give for `Cc1n[nH]c2c1C(c1cccc(Cl)c1)(C(C)C)C(C#N)=C(N)O2` (centres unmarked) [HK-7] here?
A: The IC50 was 0.401 µM.

Q: Which IC50 [5] does the source give for `COc1cc(Cl)cc(C2(C3CCC3)C(C#N)=C(N)Oc3[nH]nc(C)c32)c1` (centres unmarked) [HK-9] here?
A: The IC50 was 3.46 µM.

Q: What does the source list for `Cc1n[nH]c2c1C(c1cc(Cl)cc(Cl)c1)(C1CCC1)C(C#N)=C(N)O2` (centres unmarked) [HK-10]?
A: IC50 [5]: 1.19 µM; IC50 [6]: 0.593 µM

Q: Which IC50 [5] does the source give for `Cc1n[nH]c2c1C(c1cc(Cl)cc(C(F)(F)F)c1)(C1CCC1)C(C#N)=C(N)O2` (centres unmarked) [HK-11] here?
A: Its IC50 is 0.1 µM.

Q: What does the source list for `Cc1n[nH]c2c1C(c1cc(C(F)(F)F)cc(C(F)(F)F)c1)(C1CCC1)C(C#N)=C(N)O2` (centres unmarked) [HK-12]?
A: IC50 [5]: 0.168 µM; IC50 [6]: 0.206 µM

Q: With `COc1cc(Cl)cc(C2(C(C)C)C(C#N)=C(N)Oc3[nH]nc(C)c32)c1` (centres unmarked) [HK-13] as the molecule, how does the IC50 [5] read?
A: Its IC50 is 0.5 µM.

Q: What does the source list for `Cc1n[nH]c2c1C(c1cc(Cl)cc(Cl)c1)(C(C)C)C(C#N)=C(N)O2` (centres unmarked) [HK-14]?
A: IC50 [5]: 0.131 µM; IC50 [6]: 0.067 µM

Q: With `Cc1n[nH]c2c1C(c1cc(Cl)cc(C(F)(F)F)c1)(C(C)C)C(C#N)=C(N)O2` (centres unmarked) [HK-15] as the molecule, how does the IC50 [5] read?
A: Its IC50 is 0.035 µM.

Q: And the IC50 [6]?
A: The IC50 was 0.02 µM.

Q: For `Cc1n[nH]c2c1C(c1cc(N3CCCC3)cc(C(F)(F)F)c1)(C(C)C)C(C#N)=C(N)O2` (centres unmarked) [HK-X1], which IC50 [5] is on record?
A: The IC50 was 0.066 µM.

Q: And the IC50 [6]?
A: The IC50 was 0.013 µM.

Q: What about the “rescue of effects on cell growth by addition of formate” value [2] of the same molecule?
A: Its value is “rescued”.

Q: Which results are given for `Cc1n[nH]c2c1C(c1cc(CO)cc(-c3ccccc3)c1)(C(C)C)C(C#N)=C(N)O2` (centres unmarked) [HK-X2]?
A: rescue of effects on cell growth by addition of formate [2]: rescued; apoptotic fraction of cells ([7]; Su-DHL4, inhibitor alone): 8%; apoptotic fraction of cells ([7]; Su-DHL4, inhibitor in the presence of formate): 15%; apoptosis measured by Annexin V surface staining ([7]; Su-DHL-4, co-treatment with formate): enhanced; apoptosis measured by Annexin V surface staining ([7]; Su-DHL-4, inhibitor alone): induced apoptosis; IC70 ([8]; SU-DHL4, RPMI): 5 µM; cell growth (or death) over 48 h ([8]; formate (1 mM) added): fully cytostatic; cell growth (or death) over 48 h ([8]; formate added and glycine removed): significant cell death; concentration that impairs cell growth [9]: < 100 nM
